Earlier results in patent publication US20250360135A1, “COMPOSITIONS COMPRISING DISODIUM 5,10-METHYLENE-(6R)-TETRAHYDROFOLATE” (MERCK PATENT GMBH, priority 2022, published 2025).

purity after 7 hours (after 7 hours): 84%
normalized purity after 24 hours (after 24 hours): 45%
degradation rate (loss of purity per hour) (re-constituted lyophilizate, linear regression of stability profile): 2.2 % purity per hour
Compound: Nc1nc2c(c(=O)[nH]1)N1CN(c3ccc(C(=O)N[C@@H](CCC(=O)O)C(=O)O)cc3)C[C@H]1CN2 [5,10-methylene-(6R,S)-tetrahydrofolic acid]
